Measurements as given in EP4345091A1, “BENZOIC ACID DERIVATIVES, METHODS AND USES THEREOF” (priority 2022, dated 2024).
≈ marks a conversion by molar mass, not a printed value. Read-outs that look alike come from different tables or passages of the source.

Key:
[1] = system: Mycobacterium tuberculosis H37Rv; test: MIC and MBC by broth microdilution against M. tuberculosis H37Rv; assay type: cell-based, Mycobacterium tuberculosis H37Rv (ATCC 27294)
[2] = Stability in Mycobacterium smegmatis homogenate (enzymatic hydrolysis); details: pH 7.4; for half-life at 500 µM: mycobacterium smegmatis homogenate; for half-life: Mycobacterium smegmatis
[3] = system: Mycobacterium smegmatis homogenate; test: as above; details: Mycobacterium smegmatis homogenate, 37°C
[4] = Cytotoxicity assay in THP-1 cells; assay type: cell-based, human; details: human, THP-1 cells, read-out: LC50 (the source's name)
Source text: (§1) Cytotoxicity results were obtained through lethal concentration for 50% of the cell population, LC50. Table 6. Results obtained from cytotoxicity assays for the esters, represented by LD50 in µg/mL and comparison with MIC values, in µg/mL with toxicity/activity (T/A) index.
(§2) The T/A index quantitatively is the ratio between the lethal concentration (LC50) given by the minimum inhibitory concentration (MIC).

[5] = system: human monocytic cell line THP-1 (ATCC56 TIB202); test: Cytotoxicity assay in THP-1 cells; assay type: cell-based; details: toxicity/activity index: ratio LC50 (THP-1) / MIC (M. tuberculosis H37Rv)
Source text: as §1, §2

[6] = Chemical stability in phosphate buffer pH 7.4
Description: (§3) Chemical hydrolysis was evaluated in phosphate buffer at physiological pH (7.4) to determine its influence in enzymatic studies.
(§4) 1176 µL pH 7.4 phosphate buffer or pH 5.9 phosphate buffer, 18 µL ACN and 6 µL of a 10-1 M stock solution of the prodrug in ACN were mixed in a 2mL vial. The solution was incubated at 37 °C and 50 µL aliquots were removed, mixed with 450 µL of ACN: H2O 1:1. The solution was analysed by HPLC, the remaining substrate and the correspondent acid were both measured.
(§5) The eluant was a mixture of acetonitrile (60%/70%) and aqueous phosphate buffer with 5% of KH2PO4/H3PO4 0.025M (40%/30%). The flow rate was always 1 mL/1 min and wavelength was set at 230 nm. All quantifications were evaluated using calibration curves from stock solutions.
(§6) The initial substrate concentration was 5 x 10^-4 M in all stability assays. All incubations were carried out at pH 7.4 and 37 °C under agitation using the phosphate buffer described above as diluting agent. […] Acetonitrile (2%) was used in all studies to ensure adequate solubilization of the substrates.

[7] = Stability in human plasma (enzymatic hydrolysis)
Description: The studies of stability in human plasma were performed in human plasma diluted to 80% with phosphate buffer pH 7.4 of total concentration 0.05 M and ionic strength 0.15 M at 37°C. […] Study of enzymatic hydrolysis. […] Initial substrate concentration (ester) - 5×10^-4M with 2% ACN.
Pooled human plasma (960 µL), pH 7.4 phosphate buffered saline (216 µL), 18 µL ACN and 6 µL of a 10-1 M stock solution of the prodrug in ACN were mixed in a 2mL vial. The suspensions were incubated at 37 °C and 50 µL aliquots were removed, mixed with 450 µL of ACN: ZnSO4 1% 1:1 and centrifuged. The supernatant was removed and analysed by HPLC, the remaining substrate and the correspondent acid measured.
Two HPLC systems were used. The buffer and plasma stability studies were performed in an HPLC system with a photodiode detector L-3000 Photo Diode Array Detector, Merck-Hitachi L-6000 pump, Merck-Hitachi D-2500 integrator, and Merck RP-8 column. […] The eluant was a mixture of acetonitrile (60%/70%) and aqueous phosphate buffer with 5% of KH2PO4/H3PO4 0.025M (40%/30%). The flow rate was always 1 mL/1 min and wavelength was set at 230 nm. All quantifications were evaluated using calibration curves from stock solutions.
The initial substrate concentration was 5 x 10^-4 M in all stability assays. All incubations were carried out at pH 7.4 and 37 °C under agitation using the phosphate buffer described above as diluting agent. […] Acetonitrile (2%) was used in all studies to ensure adequate solubilization of the substrates. The benzoates were added from 10 to 1M acetonitrile stock solutions. After incubation, aliquots of 50 µL were taken into vials containing 450 µL of a 1:1 solution of 1% zinc sulfate and acetonitrile, mixed in a vortex and centrifuged for 10 min at 15,000 rpm. The supernatant was then injected into the HPLC and analysed for quantification of benzoic acid and remaining benzoate. All quantifications were performed using calibration curves.

M. bovis BCG = test: microbe, parasite or virus in culture; assay type: cell-based; details: Mycobacterium tuberculosis variant bovis BCG
[8] = system: Mycobacterium Bovis BCG infecting human macrophages THP-1; assay type: cell-based; details: compound concentration 2 µg/ml
[9] = pH 7.4
Description: as §3, §4, §5, §6

M. smegmatis mc2 155 = test: MIC and MBC against M. smegmatis; assay type: cell-based; details: Mycolicibacterium smegmatis, MC2155
[10] = Mycobacterium tuberculosis, H37RV, M. tuberculosis H37Rv, Table 3
[11] = Mycobacterium tuberculosis, H37RV, M. tuberculosis H37Rv, Tables 3, 6 and 7
[12] = Mycobacterium tuberculosis, H37RV, M. tuberculosis H37Rv, Table 3, read-out: MBC
[13] = Mycobacterium tuberculosis, H37RV, M. tuberculosis H37Rv, Tables 3, 6 and 7, read-out: MIC
[14] = THP-1 monocytic cells, lethal concentration for 50% of the cell population
[15] = lethal concentration for 50% of the cell population
[16] = Mycobacterium tuberculosis, H37RV

Row | Compound | half-life at 500 µM [2] | Degradation (%) 24h [3] | Degradation (%) 48h [3] | MBC [1, 12] | MIC [1, 13] | T/A [5] | Degradation (%) 24h [6] | Degradation (%) 48h [6] | Degradation (%) 72h [6] | Degradation (%) 168h [6] | Degradation (%) 332h [6] | Degradation (%) 24h [7] | Degradation (%) 48h [7] | Degradation (%) 72h [7] | half-life [2] | other results
1 | CCCCCCOC(=O)c1ccc([N+](=O)[O-])cc1 [Compound 2b] | 11.5 ± 0.6 h | 77% | 94% | – | – | – | – | – | – | – | – | – | – | – | – | MBC [1, 10]: 128 µg/mL (≈ 509 µM); MIC [1, 11]: 64 µg/mL (≈ 255 µM)
2 | CCCCCCCCOC(=O)c1ccc([N+](=O)[O-])cc1 [Compound 2c, Octyl 4-nitrobenzoate] | – | 35% | 58% | 128 µg/mL (≈ 458 µM) | 8 µg/mL (≈ 28.6 µM) | 82 | 0% | 1% | 1% | 3% | 6% | 100% | 100% | 100% | 39 ± 7.7 h | CC50 [4, 14]: 657 µg/mL (≈ 2350 µM)
3 | CCCCCCOC(=O)c1cc([N+](=O)[O-])cc(C(F)(F)F)c1 [Compound 4b, Hexyl 3-nitro-5-(trifluoromethyl)benzoate] | – | 15% | 27% | 1020 µg/mL (≈ 3210 µM) | 1020 µg/mL (≈ 3210 µM) | 0.62 | – | – | – | – | – | 72% | 94% | 98% | 105 ± 10 h | CC50 [4, 14]: 639 µg/mL (≈ 2000 µM)
4 | CCCCCCCCOC(=O)c1ccccc1 [Compound 1c, Octyl benzoate] | 1.96 ± 0.02 h | 100% | 100% | > 256 µg/mL | 256 µg/mL (≈ 1090 µM) | 6 | 0% | 0% | 0% | 0% | 0% | 45% | 71% | 84% | – | CC50 [4, 15]: 1650 µg/mL (≈ 7020 µM)
5 | CCCCNC(=O)c1cc([N+](=O)[O-])cc([N+](=O)[O-])c1 [Compound 7a, N-butyl-3.5-dinitrobenzamide] | 22.9 ± 1.5 h | 52% | 77% | – | – | 52 | 0% | 0% | 0% | 0% | 0% | 0% | 0% | 0% | – | MBC (M. bovis BCG): 1 µg/mL (≈ 3.74 µM); MIC (M. bovis BCG): 0.5 µg/mL (≈ 1.87 µM); CC50 [4, 15]: 26 µg/mL (≈ 97.3 µM)
6 | CCCCCCOC(=O)c1cc([N+](=O)[O-])cc([N+](=O)[O-])c1 [Compound 3b] | 80.9 ± 5.5 h | 19% | 34% | – | – | 17 | – | – | – | – | – | 74% | 93% | 98% | – | CFU x10^4 ([8]; Time 0 days): 9.2 CFUs per mL; CFU x10^4 ([8]; Time 1 day): 14.58 CFUs per mL; CFU x10^4 ([8]; Time 3 days): 11.87 CFUs per mL; CFU x10^4 ([8]; Time 7 days): 9.83 CFUs per mL; CC50 [4, 15]: 528 µg/mL (≈ 1780 µM)
7 | CCCCCCCCCCCCOC(=O)c1ccc([N+](=O)[O-])cc1 [Compound 2e] | 79.4 ± 4.7 h | 19% | 34% | – | – | – | – | – | – | – | – | – | – | – | – | MBC [1, 10]: 64 µg/mL (≈ 191 µM); MIC [1, 11]: 8 µg/mL (≈ 23.8 µM); Degradation (%) 24h [9]: 0%; Degradation (%) 48h [9]: 0%; Degradation (%) 72h [9]: 0%; Degradation (%) 168h [9]: 1%; Degradation (%) 332h [9]: 1%
8 | CCCCNC(=O)c1cc([N+](=O)[O-])cc(C(F)(F)F)c1 [Compound 8a, N-butyl-3-nitro-5-(trifluoromethyl)-benzamide] | – | 23% | 41% | 2 µg/mL (≈ 6.89 µM) | 2 µg/mL (≈ 6.89 µM) | 21 | 0% | 0% | 0% | 0% | 0% | 0% | 0% | 0% | 63.8 ± 4.1 h | CC50 [4, 14]: 41 µg/mL (≈ 141 µM)
9 | CCCCOC(=O)c1ccccc1 [Compound 1a, Butyl benzoate] | – | 100% | 100% | > 256 µg/mL | > 256 µg/mL | – | 0% | 0% | 0% | 1% | 2% | 100% | 100% | 100% | 0.2 ± 0.01 h | –
10 | CCCCCCNC(=O)c1ccc([N+](=O)[O-])cc1 [Compound 6b, N-hexyl-4-nitrobenzamide] | – | 17% | 32% | 64 µg/mL (≈ 256 µM) | 32 µg/mL (≈ 128 µM) | – | – | – | – | – | – | – | – | – | 87.2 ± 5.8 h | –
11 | CCCCCCCCCCCCOC(=O)c1ccccc1 [Compound 1e, Dodecyl benzoate] | – | 16% | 30% | 512 µg/mL (≈ 1760 µM) | 256 µg/mL (≈ 881 µM) | – | 0% | 0% | 0% | 0% | 0% | 3% | 6% | 9% | 91.4 ± 3.1 h | –
12 | CCCCCCOC(=O)c1ccccc1 [Compound 1b, Hexyl benzoate] | – | 100% | 100% | – | – | – | – | – | – | – | – | 94% | 100% | 100% | 0.21 ± 0.01 h | –
13 | CCCCNC(=O)c1ccc([N+](=O)[O-])cc1 [Compound 6a, N-butyl-4-nitrobenzamide] | – | 20% | 35% | 256 µg/mL (≈ 1150 µM) | 128 µg/mL (≈ 576 µM) | – | 0% | 0% | 0% | 0% | 0% | 12% | 23% | 32% | 76.5 ± 5.3 h | –
14 | CCCCOC(=O)c1ccc([N+](=O)[O-])cc1 [Compound 2a] | 3.46 ± 0.49 h | 99% | 100% | – | – | – | – | – | – | – | – | – | – | – | – | MBC [1, 10]: 128 µg/mL (≈ 573 µM); MIC [1, 11]: 64 µg/mL (≈ 287 µM); Degradation (%) 24h [9]: 0%; Degradation (%) 48h [9]: 1%; Degradation (%) 72h [9]: 1%; Degradation (%) 168h [9]: 2%; Degradation (%) 332h [9]: 4%
15 | CCCCOC(=O)c1cc([N+](=O)[O-])cc([N+](=O)[O-])c1 [Compound 3a] | 6.32 ± 0.44 h | 93% | 99% | – | – | 14 | 10% | 14% | 18% | 40% | 65% | 86% | 98% | 100% | – | MBC [1, 16]: 128 µg/mL (≈ 477 µM); MIC [1, 16]: 32 µg/mL (≈ 119 µM); CC50 [4, 15]: 456 µg/mL (≈ 1700 µM)
16 | CCCCCCCCCCCCCCCCNC(=O)c1cc([N+](=O)[O-])cc([N+](=O)[O-])c1 [Compound 7g, N-hexadecyl-3.5-dinitrobenzamide] | – | 0% | 0% | – | – | – | – | – | – | – | – | – | – | – | – | MBC ([1]; M. tuberculosis H37Rv, Table 4): 2 µg/mL (≈ 4.59 µM); MIC ([1]; M. tuberculosis H37Rv, Table 4): 2 µg/mL (≈ 4.59 µM); MBC [1, 16]: 2 µg/mL (≈ 4.59 µM); MIC [1, 16]: 2 µg/mL (≈ 4.59 µM); MBC (M. smegmatis mc2 155): > 64 µg/mL; MIC (M. smegmatis mc2 155): 32 µg/mL (≈ 73.5 µM); MBC (M. bovis BCG): 4 µg/mL (≈ 9.18 µM); MIC (M. bovis BCG): 2 µg/mL (≈ 4.59 µM); CC50 ([4]; n/d (no toxicity at maximum tested dose)): > 512 µg/mL
17 | CCCCOC(=O)c1cc([N+](=O)[O-])cc(C(F)(F)F)c1 [Compound 4a, Butyl 3-nitro-5-(trifluoromethyl)benzoate] | – | 95% | 100% | 1020 µg/mL (≈ 3520 µM) | 1020 µg/mL (≈ 3520 µM) | 0.54 | 5% | 12% | 16% | 35% | 60% | 95% | 100% | 100% | 5.36 ± 0.44 h | CC50 [4, 14]: 552 µg/mL (≈ 1900 µM)
